Laboratory results published in ChEMBL document CHEMBL5241057, “Outline of gelatinase inhibitors as anti-cancer agents: A patent mini-review for 2010-present” (Eur J Med Chem, 2021).
Each block holds one compound with its values, some of them ahead of it. Where a SMILES comes first, the peptide text is derived from it. [ ]: non-standard residue; d: D form. The star is where a group is joined. ξ: configuration not given here. Pro(trans-4-F) = O=C(O)[C@@H]1C[C@@H](F)CN1; NMeIle(3ξ) = CCC(C)[C@H](NC)C(=O)O; Dab = NCC[C@H](N)C(=O)O; Hexanoyl = CCCCCC(=O)*; Bz = O=C(c1ccccc1)*; NHOH = ON*

Legend:
[1] = target: T1, Matrix metalloproteinase-9 (Homo sapiens, UniProt P14780); assay: Inhibition of MMP9 (unknown origin) assessed as inhibition constant
[2] = target: T2, 72 kDa type IV collagenase (Homo sapiens, UniProt P08253); assay: Inhibition of MMP2 (unknown origin) assessed as inhibition constant
[3] = target: T2, 72 kDa type IV collagenase; assay: Inhibition of MMP2 (unknown origin)
[4] = target: T1, Matrix metalloproteinase-9; assay: Inhibition of MMP9 (unknown origin)
Matrilysin [5] = target: T3, Matrilysin (Homo sapiens, UniProt P09237); assay: Inhibition of MMP7 (unknown origin) assessed as inhibition constant
T3 sequence (P09237 whole entry): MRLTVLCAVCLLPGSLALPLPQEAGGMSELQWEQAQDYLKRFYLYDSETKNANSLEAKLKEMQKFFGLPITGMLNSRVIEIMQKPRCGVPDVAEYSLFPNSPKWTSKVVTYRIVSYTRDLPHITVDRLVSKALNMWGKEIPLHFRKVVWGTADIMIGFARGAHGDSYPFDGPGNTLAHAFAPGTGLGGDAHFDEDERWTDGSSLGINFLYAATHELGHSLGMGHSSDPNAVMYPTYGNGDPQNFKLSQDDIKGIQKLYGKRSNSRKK

B16-BL6 [6] = assay: Antimetastatic activity in mouse implanted with mouse B16-BL6 cells assessed as inhibition of lung metastasis at 5 mg/kg relative to control; type: functional; parameters: scale not given: the % may be the effect or the level left
B16-BL6 [7] = assay: Antimetastatic activity in mouse implanted with mouse B16-BL6 cells assessed as inhibition of lung metastasis at 7.5 mg/kg relative to control; type: functional; parameters: scale not given: the % may be the effect or the level left
B16-BL6 [8] = assay: Antimetastatic activity in mouse implanted with mouse B16-BL6 cells assessed as inhibition of lung metastasis at 2.5 mg/kg relative to control; type: functional; parameters: scale not given: the % may be the effect or the level left
[9] = target: Macrophage metalloelastase (Homo sapiens, UniProt P39900); assay: Inhibition of MMP12 (unknown origin)
[10] = target: T1, Matrix metalloproteinase-9; assay: Inhibition of MMP9 (unknown origin) assessed as dissociation constant
Neutrophil collagenase = Neutrophil collagenase (Homo sapiens, UniProt P22894); assay: Inhibition of MMP8 (unknown origin)
[11] = target: Matrix metalloproteinase-14 (Homo sapiens, UniProt P50281); assay: Inhibition of MMP14 (unknown origin)
Matrilysin [12] = target: T3, Matrilysin; assay: Inhibition of MMP7 (unknown origin)

T2 sequence (P08253 whole entry): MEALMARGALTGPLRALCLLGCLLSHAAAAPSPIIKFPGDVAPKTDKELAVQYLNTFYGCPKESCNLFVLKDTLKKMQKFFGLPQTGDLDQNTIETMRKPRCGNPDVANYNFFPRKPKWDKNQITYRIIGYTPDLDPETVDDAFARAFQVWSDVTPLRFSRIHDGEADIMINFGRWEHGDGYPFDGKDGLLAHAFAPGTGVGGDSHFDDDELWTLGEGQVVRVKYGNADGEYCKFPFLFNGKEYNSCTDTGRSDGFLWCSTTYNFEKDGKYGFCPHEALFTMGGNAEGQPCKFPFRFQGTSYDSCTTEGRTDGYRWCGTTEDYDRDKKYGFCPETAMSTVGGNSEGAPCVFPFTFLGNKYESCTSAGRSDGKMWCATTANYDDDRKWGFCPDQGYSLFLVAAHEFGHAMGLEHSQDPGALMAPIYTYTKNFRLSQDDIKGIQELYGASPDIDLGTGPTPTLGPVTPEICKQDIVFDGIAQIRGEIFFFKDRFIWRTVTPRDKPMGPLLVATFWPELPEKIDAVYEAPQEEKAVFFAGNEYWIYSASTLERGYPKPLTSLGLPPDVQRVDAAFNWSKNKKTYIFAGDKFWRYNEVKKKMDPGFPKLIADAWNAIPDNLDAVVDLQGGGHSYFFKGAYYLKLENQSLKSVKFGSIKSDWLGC
T1 sequence (P14780 whole entry): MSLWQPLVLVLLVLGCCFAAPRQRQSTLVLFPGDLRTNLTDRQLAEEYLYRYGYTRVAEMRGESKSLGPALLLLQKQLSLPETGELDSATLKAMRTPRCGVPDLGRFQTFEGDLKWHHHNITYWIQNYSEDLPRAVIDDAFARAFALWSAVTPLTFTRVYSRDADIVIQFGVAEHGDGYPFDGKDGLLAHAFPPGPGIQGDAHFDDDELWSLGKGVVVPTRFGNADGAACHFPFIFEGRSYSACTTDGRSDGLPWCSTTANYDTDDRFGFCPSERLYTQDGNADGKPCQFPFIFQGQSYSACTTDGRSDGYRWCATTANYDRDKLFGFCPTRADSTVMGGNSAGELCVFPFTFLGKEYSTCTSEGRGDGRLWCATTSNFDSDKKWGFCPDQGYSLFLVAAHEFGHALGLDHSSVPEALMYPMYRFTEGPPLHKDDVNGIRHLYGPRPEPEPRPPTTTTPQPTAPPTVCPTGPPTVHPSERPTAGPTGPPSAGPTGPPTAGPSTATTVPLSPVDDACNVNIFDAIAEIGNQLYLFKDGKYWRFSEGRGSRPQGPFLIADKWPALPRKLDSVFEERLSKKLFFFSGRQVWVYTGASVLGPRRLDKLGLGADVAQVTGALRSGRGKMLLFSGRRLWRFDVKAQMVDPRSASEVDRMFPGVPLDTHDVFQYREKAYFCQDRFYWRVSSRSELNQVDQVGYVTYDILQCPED
Chain of Macrophage metalloelastase (P39900 whole entry): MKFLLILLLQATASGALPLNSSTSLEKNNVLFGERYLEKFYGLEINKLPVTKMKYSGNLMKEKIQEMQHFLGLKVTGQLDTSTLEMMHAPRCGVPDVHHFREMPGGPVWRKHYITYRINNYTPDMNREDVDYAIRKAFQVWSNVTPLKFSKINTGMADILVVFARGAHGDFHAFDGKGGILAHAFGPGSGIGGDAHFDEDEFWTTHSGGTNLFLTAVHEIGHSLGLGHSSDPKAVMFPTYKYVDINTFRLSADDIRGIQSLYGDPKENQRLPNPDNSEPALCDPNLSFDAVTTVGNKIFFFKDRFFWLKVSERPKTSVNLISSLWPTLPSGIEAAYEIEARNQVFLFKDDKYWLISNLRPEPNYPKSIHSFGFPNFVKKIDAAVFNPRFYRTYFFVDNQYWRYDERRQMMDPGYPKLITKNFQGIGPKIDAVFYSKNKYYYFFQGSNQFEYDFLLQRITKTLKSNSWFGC
Chain of Neutrophil collagenase (P22894 whole entry): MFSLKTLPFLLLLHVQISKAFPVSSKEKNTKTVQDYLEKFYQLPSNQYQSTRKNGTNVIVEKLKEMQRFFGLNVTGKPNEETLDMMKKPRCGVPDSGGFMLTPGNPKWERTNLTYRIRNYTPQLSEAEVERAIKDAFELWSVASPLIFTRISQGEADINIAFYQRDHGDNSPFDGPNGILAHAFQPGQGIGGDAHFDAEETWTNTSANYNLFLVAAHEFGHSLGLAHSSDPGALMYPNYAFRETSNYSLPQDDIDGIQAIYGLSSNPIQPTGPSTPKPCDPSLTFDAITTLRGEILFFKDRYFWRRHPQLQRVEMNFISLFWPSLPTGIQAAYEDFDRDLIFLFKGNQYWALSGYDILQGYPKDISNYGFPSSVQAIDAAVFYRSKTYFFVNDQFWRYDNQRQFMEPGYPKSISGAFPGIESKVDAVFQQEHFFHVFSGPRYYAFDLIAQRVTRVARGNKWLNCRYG

SMILES: CN([C@H]1CN(C(N)=O)C[C@@H]1S)S(=O)(=O)c1ccc(Oc2ccccc2)cc1
- IC50 [1]: 1.3 nM
- IC50 [2]: 2.3 nM

SMILES: NCCCCCC(=O)N1C[C@H](NS(=O)(=O)c2ccc(Oc3ccccc3)cc2)[C@@H](S)C1
- IC50 [1]: 2.3 nM
- IC50 [2]: 2.2 nM

SMILES: NCc1ccc(Oc2ccc(S(=O)(=O)CC3CS3)cc2)cc1 (centres undefined)
- IC50 [3]: 85 nM

SMILES: CS(=O)(=O)Nc1ccc(Oc2ccc(S(=O)(=O)CC3CS3)cc2)cc1 (centres undefined)
- IC50 [1]: 80 nM

SMILES: CC(=O)NCc1ccc(Oc2ccc(S(=O)(=O)CC3CS3)cc2)cc1 (centres undefined)
- IC50 [3]: 234 nM

SMILES: C[C@@H]1O[C@@H](O[C@H]2[C@H](O[C@H]3CC[C@@]4(C)C(CC[C@]5(C)C4CC=C4C6CC(C)(C)CC[C@]6(C(=O)O)CC[C@]45C)[C@]3(C)COC(=O)[C@]3(O)C[C@@H](O)[C@@H](O)[C@H](OC(=O)/C=C/c4ccc(O)c(O)c4)C3)OC[C@H](O)[C@@H]2O)[C@H](O)[C@H](O)[C@H]1O (some centres undefined)
- IC50 [4]: 7050 nM
- Activity (B16-BL6 [6]): 52.9%
- IC50 [3]: 6230 nM
- Activity (B16-BL6 [7]): 75.2%
- Activity (B16-BL6 [8]): 43.5%

SMILES: Cc1nc2ccccc2n(CC(=O)NN/C=C\c2cccc([N+](=O)[O-])c2)c1=O
- IC50 [3]: 2010 nM

SMILES: COC(=O)Cc1ccc(Oc2ccc(S(=O)(=O)CC3CS3)cc2)cc1 (centres undefined)
- Ki [1]: 180 nM

SMILES: CC(C)c1noc([C@@H](NC(=O)[C@H](CC2CCCC2)[C@H](O)C(=O)NO)C(C)(C)C)n1
- IC50 [4]: < 100 nM

SMILES: NCc1nc(-c2ccc(Oc3ccc(S(=O)(=O)CC4CS4)cc3)cc2)no1 (centres undefined)
- IC50 [3]: 630 nM

SMILES: CCCCCC(=O)N1C[C@H](F)C[C@H]1C(=O)N(C)[C@H](C(=O)N[C@@H](CCNC(=O)c1ccccc1)C(=O)NO)C(C)CC (stereo partly drawn) (Hexanoyl-[Pro(trans-4-F)]-[NMeIle(3ξ)]-[Dab](Bz)-{NHOH})
- IC50 [3]: < 1 nM

SMILES: CC(C)=CCc1cc(/C=C/C(=O)O)cc(CC=C(C)C)c1O [ARTEPILLIN]
- IC50 [3]: 3100 nM
- IC50 [11]: 350000 nM
- IC50 (Matrilysin [12]): 320000 nM

Further lines, results first:

- IC50 [3]: 0.23 nM
SMILES: O=C(NO)C1(S(=O)(=O)c2ccc(-n3cc(-c4ccc(-c5ccncc5)cc4)nn3)cc2)CCOCC1

- IC50 [4]: 1 nM
- Ki (Matrilysin [5]): 116000 nM
- IC50 [3]: 0.22 nM
SMILES: CN(C)c1ccc(-c2cn(-c3ccc(S(=O)(=O)NC(Cc4ccccc4)C(=O)NO)cc3)nn2)cc1 (centres undefined)

- IC50 [4]: 0.29 nM
- IC50 [3]: 0.065 nM
- IC50 [9]: 0.566 nM
SMILES: CCc1ccc(-c2cc(-c3ccc(S(=O)(=O)N[C@H](C(=O)O)C(C)C)cc3)no2)s1

- IC50 [3]: 53 nM
SMILES: NS(=O)(=O)c1cc(C(=O)c2ccc3c(-c4ccccc4)c[nH]c3c2)ccc1Cl

- IC50 [3]: 10500 nM
SMILES: Cc1ccc(NCC(=O)[C@@H](Cc2ccccc2)NC(=O)Cn2c(=O)c(C)nc3ccccc32)cc1

- IC50 [10]: 300 nM
SMILES: O=C(CCCSc1nc(=O)c2ccccc2[nH]1)Nc1nc2ccccc2[nH]1

- IC50 [4]: 0.34 nM
- IC50 [3]: 0.0449 nM
- IC50 [9]: 0.368 nM
- IC50 (Neutrophil collagenase): 0.567 nM
SMILES: Cc1ccc(-c2cc(-c3ccc(S(=O)(=O)N[C@H](C(=O)O)C(C)C)cc3)no2)s1
